Test results taken from patent publication US11413305B2, “Use of agar-derived oligosaccharides for inhibiting growth of Staphylococcus” (Korea University Research and Business Foundation, priority 2017, dated 2022).

How the values were obtained:
[1] = tested on: S. aureus (KCCM12256); experiment: Growth inhibition experiment in liquid medium (absorbance at 600 nm); assay type: cell-based, Staphylococcus aureus; conditions: for concentration at which growth was completely inhibited: liquid M9-based medium, 37° C., 200 rpm, OD600
Protocol: (§1) S. aureus (KCCM12256) and S. epidermidis (KCCM35494) distributed from the Korean Culture Center of Microorganisms were used. The medium for Staphylococci used a M9 salt supplemented with 2 mM MgSO4, 0.1 mM CaCl2), 1% (w/v) glucose, 1% (w/v) casamino acid, 1 mM thiamine HCl, and 0.05 mM nicotinamide. The thiamine-HCl solution and the nicotinamide solution were filtered using a filter having a pore size of 0.2 μm, and the other components were autoclaved at 121° C. for 15 minutes and used. After mixing the medium components according to their respective concentrations, the mixture was filtered again using a filter having a pore size of 0.2 μm.
(§2) In the growth inhibition experiment, the S. aureus and the S. epidermidis were seed-cultured at 37° C. and 200 rpm for 24 hours and then subcultured. After incubation up to the mid-exponential phase (OD600=2.5) through the subculture, the bacteria were inoculated into liquid media containing the agarooligosaccharide at concentrations of 0 mg/mL, 1 mg/mL, 2 mg/mL, and 4 mg/mL so that the initial absorbance (i.e., initial cell population) thereof at 600 nm was 0.01. Subsequently, each of the above was dispensed in 200 μl aliquots into a 96-well plate, and absorbance was measured while culturing the bacteria. The incubation and the absorbance measurement were performed using Synergy HTX Multi-Mode Reader commercially available from BioTek Instruments, Inc. The incubation was performed at 37° C. and 200 rpm, and the absorbance was measured at a wavelength of 600 nm. […]
The growth inhibition test of Staphylococci was carried out in the same manner as in Example 1, except that AHG (1, 2, 4, and 8 mg/mL) was used instead of the agarooligosaccharide. […]

[2] = tested on: S. epidermidis (KCCM35494); experiment: as above; assay type: cell-based, Staphylococcus epidermidis
Protocol: as §1
as §2, with “bacteria.” for “bacteria. The incubation and the absorbance measurement were performed using Synergy HTX Multi-Mode Reader commercially available from BioTek Instruments, Inc. The incubation was performed at 37° C. and 200 rpm, and the absorbance was measured at a wavelength of 600 nm.”

[3] = tested on: S. aureus; experiment: Disk diffusion assay; assay type: cell-based, Staphylococcus aureus; conditions: 50 to 150 μg/disk, 37° C., 16 hours
Protocol: (§3) The disk diffusion assay is a common method of determining whether microbial growth is inhibited based on the diffusion of antibiotics in a disk. Accordingly, agarobiose was dispensed in an amount of 0 to 150 μg/disk on each disk to observe the growth of Staphylococci.
(§4) To this end, a solid medium for a disk diffusion assay having the same composition as in Example 1 was used, except that 1.5% agar was added to the liquid medium. […] First, the disks were prepared such that they contained agarobiose in an aqueous state in amounts of 0, 50, 100, and 150 μg/disk. Subsequently, a staphylococcal culture was streaked on the provided solid medium using a sterile cotton swab so that the Staphylococci were evenly distributed on the medium, and the prepared disks were placed on the solid medium inoculated with the bacteria. Subsequently, after culturing the bacteria at 37° C. for 16 hours, it was observed that a zone of inhibition appeared.

[4] = tested on: S. epidermidis; experiment: Disk diffusion assay; assay type: cell-based, Staphylococcus epidermidis; conditions: 50 to 150 μg/disk, 37° C., 16 hours
Protocol: as §3, §4

[5] = tested on: S. aureus; experiment: Number of viable Staphylococci over culture time (CFU count); assay type: cell-based, Staphylococcus aureus; conditions: agarobiose concentrations of 2 mg/mL or more
Protocol: (§5) In order to observe changes in staphylococcal growth according to culture time after the addition of agarobiose, the number of viable Staphylococci was monitored for 16 hours or 32 hours. To this end, the initial cell concentration was adjusted to an average of about 6.5×10^6 CFU/mL for both S. aureus and S. epidermidis, and the experiment was carried out at agarobiose concentrations of 0, 2, and 4 mg/mL.
(§6) The same culture conditions as in the method of Example 1 were applied, except that agarobiose concentrations of 0, 2, and 4 mg/mL were applied. At a working volume of 10 mL, the number of viable cells instead of absorbance was measured. To this end, the original sample was taken at each time point, diluted to 10^−3 to 10^−6 using 0.85% physiological saline, and then dispensed onto a trypticase soy agar (TSA; BD Bioscience, Franklin Lakes, N.J.) medium. After 16 to 24 hours, colony-forming unit (CFU)/mL was calculated and converted based on a dilution factor.

[6] = tested on: S. epidermidis; experiment: as above; assay type: cell-based, Staphylococcus epidermidis
Protocol: as §5, §6

[7] = tested on: S. aureus; experiment: LIVE/DEAD BacLight cell viability assay; assay type: cell-based, Staphylococcus aureus; conditions: agarobiose 2 mg/mL, 8 hours post-treatment
Protocol: The effect of the addition of agarobiose on the survival of S. aureus was tested using an Invitrogen LIVE/DEAD BacLight bacterial viability kit. […] To this end, after adjusting the number of S. aureus in a liquid medium containing agarobiose at 2 mg/mL so that the absorbance at 600 nm was 0.5, the S. aureus was cultured at 37° C. and 200 rpm. At 0 and 8 hours after incubation, the cells were washed with 0.85% physiological saline, resuspended in PBS buffer, and stained in accordance with the kit's protocol. Equal volumes of SYTO® 9 and propidium iodide reagents included in the kit were added and then reacted for 15 minutes in the dark.

[8] = liquid medium, OD600, 1, 2, 4 and 8 mg/mL tested

## OC[C@H]1OC(O)[C@H](O)[C@@H](O[C@@H]2O[C@H]3CO[C@@H]([C@@H]2O)[C@@H]3O)[C@H]1O (stereo partly drawn) [neoagarobiose, reference compound]
[1]
  concentration at which growth was completely inhibited: > 20 mg/mL

## O=C[C@@H](O)[C@@H]1OC[C@H](O)[C@H]1O [AHG, 3,6-anhydro-L-galactose]
[1]; [8]
  concentration at which growth was almost completely inhibited: 8 mg/mL
[2]; [8]
  concentration at which growth was almost completely inhibited: 8 mg/mL

## OC[C@H]1O[C@@H](O[C@H]2[C@H]3OC[C@@H]2OC(O)[C@H]3O)[C@H](O)[C@@H](O)[C@H]1O (mixture of isomers) [agarobiose]
[1]
  concentration at which growth was completely inhibited: 2 mg/mL
[2]; liquid M9-based medium, 37° C., 200 rpm, OD600
  concentration at which growth was completely inhibited: 2 mg/mL
[3]
  growth around disk (zone of inhibition): did not grow at all
[4]
  growth around disk (zone of inhibition): did not grow at all
[5]
  growth (viable cell count): inhibited
[6]; 2 mg/mL and 4 mg/mL, culturing for 16 to 32 hours, initial 6.5×10^6 CFU/mL
  decrease in number of viable cells from the initial number: ≤ 1.5 log10 (CFU/mL)
[6]; agarobiose concentrations of 2 mg/mL or more
  growth (viable cell count): inhibited
[7]
  cell viability (green/red fluorescence): caused the death of S. aureus

## O=C[C@H](O)[C@@H](O)[C@@H](O)[C@H](O)CO [galactose, reference compound]
[1]; [8]
  growth inhibition: not inhibited at all
